1 compound from US7189729B2, “Methods and compositions as protein kinase inhibitors” (IRM LLC, priority 2003, dated 2007) can be followed below.

The assay deals with b-Raf (Homo sapiens, UniProt P15056). The assay is described as follows: b-Raf inhibition assay (IκBα substrate, 384-well plate). Format: biochemical. On the procedure: Compounds of the invention are tested for their ability to inhibit the activity of b-Raf. The assay is carried out in 384-well MaxiSorp plates (NUNC) with black walls and clear bottom. The substrate, IκBα is diluted in DPBS (1:750) and 15 μl is added to each well. The plates are incubated at 4° C. overnight and washed 3 times with TBST (25 mM Tris, pH 8.0, 150 mM NaCl and 0.05% Tween-20) using the EMBLA plate washer. Plates are blocked by Superblock (15 μl/well) for 3 hours at room temperature, washed 3 times with TBST and pat-dried. Assay buffer containing 20 μM ATP (10 μl) is added to each well followed by 100 nl or 500 nl of compound. B-Raf is diluted in the assay buffer (1 μl into 25 μl) and 10 μl of diluted b-Raf is added to each well ([…]). The plates are incubated at room temperature for 2.5 hours. The kinase reaction is stopped by washing the plates 6 times with TBST. Phosph-IκBα (Ser32/36) antibody is diluted in Superblock (1:10,000) and 15 μl is added to each well. The plates are incubated at 4° C. overnight and washed 6 times with TBST. AP-conjugated goat-anti-mouse IgG is diluted in Superblock (1:1,500) and 15 μl is added to each well. Plates are incubated at room temperature for 1 hour and washed 6 times with TBST. […] Plates are read on Acquest or Analyst GT using a Fluorescence Intensity Nanxin BBT anion (505 dichroic mirror).
Sequence of b-Raf (P15056 whole entry): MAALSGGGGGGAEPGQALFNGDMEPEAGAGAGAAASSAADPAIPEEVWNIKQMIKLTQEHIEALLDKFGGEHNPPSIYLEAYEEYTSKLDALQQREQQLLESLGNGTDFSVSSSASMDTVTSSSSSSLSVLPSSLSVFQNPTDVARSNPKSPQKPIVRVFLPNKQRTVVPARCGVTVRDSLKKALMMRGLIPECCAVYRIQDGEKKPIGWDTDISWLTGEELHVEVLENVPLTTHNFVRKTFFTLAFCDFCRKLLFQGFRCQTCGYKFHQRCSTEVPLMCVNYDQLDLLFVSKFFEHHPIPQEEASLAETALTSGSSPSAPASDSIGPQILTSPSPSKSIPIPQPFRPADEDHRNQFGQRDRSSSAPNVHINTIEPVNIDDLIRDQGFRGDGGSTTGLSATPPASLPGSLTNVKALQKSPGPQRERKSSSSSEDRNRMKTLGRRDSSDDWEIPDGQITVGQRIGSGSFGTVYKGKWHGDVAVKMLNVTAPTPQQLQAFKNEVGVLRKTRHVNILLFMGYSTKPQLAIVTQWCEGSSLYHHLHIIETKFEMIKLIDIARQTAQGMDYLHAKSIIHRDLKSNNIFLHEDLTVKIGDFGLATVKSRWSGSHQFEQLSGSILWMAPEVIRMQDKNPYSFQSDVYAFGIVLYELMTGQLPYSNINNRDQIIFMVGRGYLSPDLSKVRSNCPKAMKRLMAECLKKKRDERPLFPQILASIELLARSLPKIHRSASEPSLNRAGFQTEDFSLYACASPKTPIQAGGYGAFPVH

The term IC50 denotes the concentration needed to halve the response being measured. Consider `CN1CCN(Cc2ccc(C(=O)Nc3cccc(Nc4ccccc4-c4cc(Nc5cccc(N(C)C)c5)ncn4)c3)cc2)CC1` [Example 1, N-(3-{2-[6-(3-Dimethylamino-phenylamino)-pyrimidin-4-yl]-phenylamino}-phenyl)-4-(4-methyl-piperazin-1-ylmethyl)-benzamide], for which the IC50 was determined as 667 nM.
